Reference: patent publication US11040981B2, “Pyrrolotriazine compounds and methods of inhibiting TAM kinases” (Syros Pharmaceuticals, Inc., priority 2017, dated 2021)

Key:
AXL = target: T1, AXL (Homo sapiens, UniProt P30530); experiment: TR-FRET kinase activity assay, AXL; assay type: biochemical; conditions: ATP at Km, 60 minutes
T1 sequence (P30530 26-894): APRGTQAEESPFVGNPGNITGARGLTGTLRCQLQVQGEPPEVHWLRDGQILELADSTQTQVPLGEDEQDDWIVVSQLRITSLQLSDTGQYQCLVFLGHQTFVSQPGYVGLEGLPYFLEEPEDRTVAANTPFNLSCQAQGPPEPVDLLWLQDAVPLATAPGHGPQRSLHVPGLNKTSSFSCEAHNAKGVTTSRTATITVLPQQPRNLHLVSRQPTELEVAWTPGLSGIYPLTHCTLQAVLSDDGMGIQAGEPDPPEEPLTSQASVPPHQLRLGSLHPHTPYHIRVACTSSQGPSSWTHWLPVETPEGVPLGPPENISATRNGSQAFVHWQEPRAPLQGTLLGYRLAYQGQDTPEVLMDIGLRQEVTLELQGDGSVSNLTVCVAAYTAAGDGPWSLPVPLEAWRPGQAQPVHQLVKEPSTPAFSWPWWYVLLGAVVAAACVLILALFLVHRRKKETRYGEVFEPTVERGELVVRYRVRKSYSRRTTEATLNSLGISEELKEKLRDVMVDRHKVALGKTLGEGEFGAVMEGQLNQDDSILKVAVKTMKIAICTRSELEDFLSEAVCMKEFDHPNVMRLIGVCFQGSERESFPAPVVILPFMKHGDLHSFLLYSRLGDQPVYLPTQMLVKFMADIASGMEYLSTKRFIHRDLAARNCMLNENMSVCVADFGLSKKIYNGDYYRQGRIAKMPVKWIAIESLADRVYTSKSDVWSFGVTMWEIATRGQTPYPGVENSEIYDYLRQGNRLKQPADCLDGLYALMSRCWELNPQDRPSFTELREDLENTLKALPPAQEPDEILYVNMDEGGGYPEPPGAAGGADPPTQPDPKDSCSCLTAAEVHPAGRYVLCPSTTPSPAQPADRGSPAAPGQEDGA
In short: (§1)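 IC50 reflects the drop in TR-FRET between Eu anti-phosphotyrosine antibody and labelled peptide after a 60-minute room-temperature reaction. Buffer was 50 mM HEPES pH 7.5 with 10 mM MgCl2, 1 mM EGTA, 0.01% Brij 35 and 1 mM DTT, with ATP at Km per enzyme and EDTA quench.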

FLT3 = target: T2, FLT3 (Homo sapiens, UniProt P36888); experiment: TR-FRET kinase activity assay, FLT3; assay type: biochemical; conditions: ATP at Km, 60 minutes
T2 sequence (P36888 27-993): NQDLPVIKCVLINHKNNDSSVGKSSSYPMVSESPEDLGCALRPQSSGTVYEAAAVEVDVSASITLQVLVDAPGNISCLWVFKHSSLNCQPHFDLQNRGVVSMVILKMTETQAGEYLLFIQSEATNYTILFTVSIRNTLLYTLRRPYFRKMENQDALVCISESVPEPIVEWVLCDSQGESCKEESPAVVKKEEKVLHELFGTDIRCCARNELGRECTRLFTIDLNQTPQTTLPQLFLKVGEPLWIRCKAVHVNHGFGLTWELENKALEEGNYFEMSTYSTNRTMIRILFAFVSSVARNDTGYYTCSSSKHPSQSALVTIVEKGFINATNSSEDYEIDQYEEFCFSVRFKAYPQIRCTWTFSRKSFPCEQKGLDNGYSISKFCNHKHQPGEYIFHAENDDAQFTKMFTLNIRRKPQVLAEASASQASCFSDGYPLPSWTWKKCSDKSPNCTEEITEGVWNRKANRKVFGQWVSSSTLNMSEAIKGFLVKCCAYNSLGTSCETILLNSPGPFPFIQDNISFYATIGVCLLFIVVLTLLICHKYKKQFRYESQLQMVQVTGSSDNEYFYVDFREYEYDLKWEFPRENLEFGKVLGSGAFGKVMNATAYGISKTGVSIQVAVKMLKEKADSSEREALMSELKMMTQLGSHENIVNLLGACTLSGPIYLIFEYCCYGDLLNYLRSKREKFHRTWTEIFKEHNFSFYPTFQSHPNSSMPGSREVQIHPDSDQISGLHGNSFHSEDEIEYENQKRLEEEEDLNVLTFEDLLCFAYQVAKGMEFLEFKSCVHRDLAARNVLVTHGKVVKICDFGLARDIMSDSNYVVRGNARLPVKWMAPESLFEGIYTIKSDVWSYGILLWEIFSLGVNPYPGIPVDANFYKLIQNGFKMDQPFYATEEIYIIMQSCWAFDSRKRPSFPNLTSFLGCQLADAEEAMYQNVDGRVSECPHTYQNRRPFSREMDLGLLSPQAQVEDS
In short: as §1

SMILES	IC50 (AXL)	IC50 (FLT3)
COC[C@H](C)Nc1ncc2c(-c3ccc(CN4CCN(C)CC4)cc3)cc([C@H]3CC[C@H](O)CC3)n2n1 (single isomer, unassigned) [Compound 124]	≤ 100 nM	100 to 1000 nM
CC[C@H](C)Nc1ncc2c(-c3cncc(S(C)(=O)=O)c3)cc([C@H]3CC[C@H](O)CC3)n2n1 [Compound 119]	100 to 1000 nM	1000 to 10000 nM
CCCCC[C@H](C)Nc1ncc2c(C3=CCC(C(=O)O)CC3)cc([C@H]3CC[C@H](O)CC3)n2n1 (stereo partly drawn) [Compound 122, 4-(2-((S)-heptan-2-ylamino)-7-((trans)-4-hydroxycyclohexyl)pyrrolo[2,1-f][1,2,4]triazin-5-yl)cyclohex-3-enecarboxylic acid]	≤ 100 nM	100 to 1000 nM
CCC(C)Nc1ncc2c(C)cc(C3CCC(O)CC3)n2n1 (stereo not shown) [Compound 123]	1000 to 10000 nM	1000 to 10000 nM
CNC(=O)c1ncc(-c2cc([C@H]3CC[C@H](O)CC3)n3nc(N[C@@H](C)CC(F)(F)F)ncc23)cn1 [Compound 347]	≤ 100 nM	≤ 100 nM
COC[C@H](C)Nc1ncc2c(-c3cnn([C@H]4CCNC4=O)c3)cc([C@H]3CC[C@H](O)CC3)n2n1 [Compound 348]	≤ 100 nM	100 to 1000 nM
COC[C@H](C)Nc1ncc2c(-c3cc([C@H]4CC[C@H](O)CC4)n4nc(N[C@@H](C)COC)ncc34)cc([C@H]3CC[C@H](O)CC3)n2n1 [Compound 349]	1000 to 10000 nM	1000 to 10000 nM
CNC(=O)c1cc(-c2cc([C@H]3CC[C@H](O)CC3)n3nc(N[C@@H](C)CC(F)(F)F)ncc23)cc(C)n1 [Compound 353]	100 to 1000 nM	100 to 1000 nM
CNc1cc(-c2cc([C@H]3CC[C@H](O)CC3)n3nc(N[C@@H](C)COC)ncc23)ccn1 [Compound 354]	≤ 100 nM	100 to 1000 nM
COC[C@H](C)Nc1ncc2c(-c3ccnc(N4CCOCC4)c3)cc([C@H]3CC[C@H](O)CC3)n2n1 [Compound 355]	≤ 100 nM	≤ 100 nM
OC1CCC(c2cc(-c3ccnc(N4CCOCC4)c3)c3cnc(NC4CCOC4)nn23)CC1 (stereo not shown) [Compound 356]	≤ 100 nM	≤ 100 nM
CNS(=O)(=O)c1ccc(-c2cc([C@H]3CC[C@H](O)CC3)n3nc(N[C@@H](C)CC(F)(F)F)ncc23)cn1 [Compound 360]	≤ 100 nM	≤ 100 nM
CNOc1cc(-c2cc([C@H]3CC[C@H](O)CC3)n3nc(N[C@@H](C)COC)ncc23)ccn1 [Compound 361]	≤ 100 nM	1000 to 10000 nM
O[C@H]1CC[C@H](c2cc(-c3ccnc(N4CCOCC4)c3)c3cnc(N[C@H]4CCOC4)nn32)CC1 [Compound 362]	≤ 100 nM	≤ 100 nM
O[C@H]1CC[C@H](c2cc(-c3ccnc(N4CCOCC4)c3)c3cnc(NCCC(F)(F)F)nn32)CC1 [Compound 363]	≤ 100 nM	≤ 100 nM
COC[C@H](C)Nc1ncc2c(-c3ccnc(OC4CCNCC4)c3)cc([C@H]3CC[C@H](O)CC3)n2n1 [Compound 369]	≤ 100 nM	100 to 1000 nM
CC(=O)N1CCN(Cc2ccc(-c3cc(C4CCC(O)CC4)n4nc(NC(C)CC(F)(F)F)ncc34)cc2)CC1 (stereo not shown) [Compound 370]	≤ 100 nM	≤ 100 nM
COCC(C)Nc1ncc2c(C3CCN(c4ccnc(C)n4)C3)cc(C3CCC(O)CC3)n2n1 (stereo not shown) [Compound 373]	100 to 1000 nM	1000 to 10000 nM
COCC(C)Nc1ncc2c(C3CCN(c4ccnc(C)n4)C3)cc(C3CCC(O)CC3)n2n1 (stereo not shown) [Compound 374]	≤ 100 nM	1000 to 10000 nM
COC[C@H](C)Nc1ncc2c([C@@H]3CCN(S(C)(=O)=O)C3)cc([C@H]3CC[C@H](O)CC3)n2n1 [Compound 375]	100 to 1000 nM	1000 to 10000 nM

Other lines, results leading:

IC50 (AXL)	IC50 (FLT3)	SMILES
100 to 1000 nM	100 to 1000 nM	CN1CCN(Cc2ccc(-c3cc(C4CCC(O)CC4)n4nc(NC5CCC5(C)C)ncc34)cc2)CC1 (mixture of isomers) [Compound 121]
100 to 1000 nM	1000 to 10000 nM	COCC(C)Nc1ncc2c(C3CCN(C(C)=O)C3)cc(C3CCC(O)CC3)n2n1 (mixture of isomers) [Compound 383]
100 to 1000 nM	1000 to 10000 nM	CC[C@H](C)Nc1ncc2c(-c3cncc(S(C)(=O)=O)c3)cc([C@H]3CC[C@@H](O)CC3)n2n1 [Compound 120]
100 to 1000 nM	1000 to 10000 nM	CCCCC[C@H](C)Nc1ncc2c([C@H]3CC[C@@H](C(=O)O)CC3)cc([C@H]3CC[C@H](O)CC3)n2n1 [Compound 125, (cis)-4-(2-((S)-heptan-2-ylamino)-7-((trans)-4-hydroxycyclohexyl)pyrrolo[2,1-f][1,2,4]triazin-5-yl)cyclohexanecarboxylic acid]
≤ 100 nM	≤ 100 nM	C[C@@H](CC(F)(F)F)Nc1ncc2c(-c3ccnc(N4CCOCC4)c3)cc([C@H]3CC[C@H](O)CC3)n2n1 [Compound 346]
≤ 100 nM	≤ 100 nM	CC(C)Nc1ncc2c(-c3ccnc(N4CCOCC4)c3)cc([C@H]3CC[C@H](O)CC3)n2n1 [Compound 350]
≤ 100 nM	≤ 100 nM	C[C@@H](CC(F)F)Nc1ncc2c(-c3cnn(C4COC4)c3)cc([C@H]3CC[C@H](O)CC3)n2n1 [Compound 351]
≤ 100 nM	≤ 100 nM	CC(CC(F)F)Nc1ncc2c(-c3ccc(CN4CCN(C)CC4)cc3)cc(C3CCC(O)CC3)n2n1 (stereo not shown) [Compound 352]
≤ 100 nM	100 to 1000 nM	COC[C@H](C)Nc1ncc2c(-c3ccnc(N4CCS(=O)(=O)CC4)c3)cc([C@H]3CC[C@H](O)CC3)n2n1 [Compound 357]
≤ 100 nM	1000 to 10000 nM	COC[C@H](C)Nc1ncc2c(-c3ccnc(OC4COC4)c3)cc([C@H]3CC[C@H](O)CC3)n2n1 [Compound 358]
≤ 100 nM	≤ 100 nM	OC1CCC(c2cc(-c3ccnc(N4CCOCC4)c3)c3cnc(NCCC4CC4)nn23)CC1 (stereo not shown) [Compound 359]
≤ 100 nM	≤ 100 nM	COC[C@H](C)Nc1ncc2c(-c3cnn([C@@H]4CCC(C(=O)OC(C)(C)C)C4)c3)cc([C@H]3CC[C@H](O)CC3)n2n1 (stereo partly shown) [Compound 364]
≤ 100 nM	100 to 1000 nM	COC[C@H](C)Nc1ncc2c(-c3cnn([C@H]4CCC(C(=O)OC(C)(C)C)C4)c3)cc([C@H]3CC[C@H](O)CC3)n2n1 (stereo partly shown) [Compound 365]
≤ 100 nM	1000 to 10000 nM	COCC(C)Nc1ncc2c(-c3cnn(C(C)(C)C(=O)N4CCOC(C)(C)C4)c3)cc(C3CCC(O)CC3)n2n1 (stereo not shown) [Compound 366]
≤ 100 nM	1000 to 10000 nM	COC[C@H](C)Nc1ncc2c(-c3cnn(C(C)(C)C(=O)N4C[C@@H](C)O[C@H](C)C4)c3)cc([C@H]3CC[C@H](O)CC3)n2n1 [Compound 367]
≤ 100 nM	100 to 1000 nM	COC[C@H](C)Nc1ncc2c(-c3cnn(C[C@@H]4CCC(=O)N4)c3)cc([C@H]3CC[C@H](O)CC3)n2n1 [Compound 368]
1000 to 10000 nM	1000 to 10000 nM	COCC(C)Nc1ncc2c(C3CCCN(C(C)=O)C3)cc(C3CCC(O)CC3)n2n1 (stereo not shown) [Compound 371]
1000 to 10000 nM	1000 to 10000 nM	COC[C@H](C)Nc1ncc2c([C@@H]3CCCN(C(C)=O)C3)cc([C@H]3CC[C@H](O)CC3)n2n1 [Compound 372]
